Experimental data reported in article PMC10739838, “Limited high-throughput screening compatibility of the phenuivirus cap-binding domain” (Scientific Reports, 2023).
Values joined by “and” are separate entries in the source; they are usually repeats but may differ in a detail not shown here. Identical values can stand only once. Like-named read-outs stand apart in the source and are kept apart here.

Assays:
SFTSV CBD [1] = target: T1, SFTSV CBD (Dabie bandavirus, UniProt I0DF35); format: binding
SFTSV CBD [2] = target: T1, SFTSV CBD; conditions: cited from earlier work
RVFV CBD [3] = target: T2, RVFV CBD (Rift valley fever virus, UniProt P27316); conditions: cited from earlier work
SFTSV CBD [4] = target: T1, SFTSV CBD; conditions: cited from earlier work; remark: listed apart in the source
PB2 CBD = PB2 CBD (Influenza A virus, UniProt P31345)
SFTSV CBD [5] = target: T1, SFTSV CBD; format: binding; remark: listed apart in the source
RVFV CBD [6] = target: T2, RVFV CBD; format: binding
SFTSV CBD [7] = target: T1, SFTSV CBD; format: binding; remark: listed apart in the source
SFTSV CBD [8] = target: T1, SFTSV CBD; format: binding; remark: listed apart in the source
human eIF4E = human eIF4E (Homo sapiens, UniProt P06730); format: binding
human eIF4E, sequence (P06730 whole entry): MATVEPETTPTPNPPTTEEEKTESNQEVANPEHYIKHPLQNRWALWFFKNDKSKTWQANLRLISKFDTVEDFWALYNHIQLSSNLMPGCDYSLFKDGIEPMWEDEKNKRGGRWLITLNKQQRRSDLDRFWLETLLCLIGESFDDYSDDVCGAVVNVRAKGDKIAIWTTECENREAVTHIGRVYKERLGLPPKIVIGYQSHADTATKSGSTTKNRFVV

T1 sequence (I0DF35 1695-1810 limits assumed): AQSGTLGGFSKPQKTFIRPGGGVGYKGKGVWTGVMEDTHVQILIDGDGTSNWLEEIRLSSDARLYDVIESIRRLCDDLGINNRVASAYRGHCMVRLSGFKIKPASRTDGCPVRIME
T2 sequence (P27316 1706-1822 limits assumed): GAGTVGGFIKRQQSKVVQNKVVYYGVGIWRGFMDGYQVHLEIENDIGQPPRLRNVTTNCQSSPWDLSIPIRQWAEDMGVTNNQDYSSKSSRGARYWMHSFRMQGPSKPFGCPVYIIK
PB2 CBD, sequence (P31345 318-483 limits assumed): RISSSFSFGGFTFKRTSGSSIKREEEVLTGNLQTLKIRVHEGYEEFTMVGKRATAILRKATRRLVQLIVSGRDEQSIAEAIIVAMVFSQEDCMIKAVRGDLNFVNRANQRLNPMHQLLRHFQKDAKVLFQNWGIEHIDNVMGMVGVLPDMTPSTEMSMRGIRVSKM

Structure (SMILES) | Kd (SFTSV CBD [1]) | Effect on thermal stability of the protein (RVFV CBD [3]) | Effect on thermal stability of the protein (SFTSV CBD [4]) | Kd (SFTSV CBD [8]) | other results
Cn1c[n+]([C@@H]2O[C@H](COP(=O)([O-])OP(=O)(O)OP(=O)(O)O)[C@@H](O)[C@H]2O)c2nc(N)[nH]c(=O)c21 [m^7GTP] | ~6000 µM and 6100 µM and 10700 µM | higher thermal stability | higher thermal stability |  | Kd (SFTSV CBD [2]): 138 µM; Kd (PB2 CBD): 2.8 µM; Kd (SFTSV CBD [5]): ~1000 µM
O=C(O)[C@H]1C2CCC(CC2)[C@@H]1Nc1nc(-c2c[nH]c3ncc(F)cc23)ncc1F [pimodivir] |  |  |  |  | Effect on thermal stability of the protein (RVFV CBD [6]): destabilization of the protein; Effect on thermal stability of the protein (SFTSV CBD [7]): destabilization of the protein
CC[N+]1=C(/C=C/C=C/C=C2/N(CCCCCC(=O)NCCOCCOCCOCCOCCC(=O)Nc3ccc(OP(=O)([O-])OP(=O)(O)OP(=O)(O)OC[C@H]4O[C@@H](n5c[n+](C)c6c(=O)[nH]c(N)nc65)[C@H](O)[C@@H]4O)cc3)c3ccc(S(=O)(=O)O)cc3C2(C)C)C(C)(C)c2cc(S(=O)(=O)[O-])ccc21 [m^7GTP-γ-aminophenyl-PEG4-Cy5] |  |  |  | 106 µM | 
Nc1nc2c(ncn2[C@@H]2O[C@H](COP(=O)(O)OP(=O)(O)OP(=O)(O)O)[C@@H](O)[C@H]2O)c(=O)[nH]1 [GTP] | 20000 µM | not | not |  | SPR signal on injection of increasing concentrations (SFTSV CBD [5]): did not result in a dose-dependent signal increase
Nc1ncnc2c1ncn2[C@@H]1O[C@H](COP(=O)(O)OP(=O)(O)OP(=O)(O)O)[C@@H](O)[C@H]1O [ATP] | 20000 µM |  |  |  | 
CC[N+]1=C(/C=C/C=C/C=C2/N(CCCCCC(=O)NCCNC(=O)O[C@@H]3[C@H](O)[C@@H](COP(=O)(O)OP(=O)(O)OP(=O)([O-])O)O[C@H]3n3c[n+](C)c4c(=O)[nH]c(N)nc43)c3ccc(S(=O)(=O)O)cc3C2(C)C)C(C)(C)c2cc(S(=O)(=O)[O-])ccc21 [EDA-m^7GTP-Cy5] |  |  |  | 55 µM and 32 µM and 36 µM | Kd (human eIF4E): 0.036 µM and 0.033 µM and 0.028 µM
